Experimental data published in the supplement of paper PMC11451515.

Test system: NOMO1
Assay: cell viability relative to DMSO control; higher = less cytotoxic
Conditions: 48 h
Procedure, shortened: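 In 1536-well plates, 5 μl of leukemia cells were seeded per well: 500 cells/well for NOMO1 or SEM and 1000 cells/well for P12-Ichikawa. Each line had first been adapted for at least four passages in each medium. Library compounds in DMSO were pin-dosed at 11 threefold concentrations between 47 μM and 0.79 nM, and CellTiter-Glo One luminescence was read after 48 h at 37°C. Viability is a per-plate percentage relative to DMSO wells, with cell-free wells as background.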

[1] = HPLM + 10% dialyzed FBS, 0.000781 µM
[2] = HPLM + 10% dialyzed FBS, 0.00234 µM
[3] = HPLM + 10% dialyzed FBS, 0.00702 µM
[4] = HPLM + 10% dialyzed FBS, 0.0211 µM
[5] = HPLM + 10% dialyzed FBS, 0.0632 µM
[6] = HPLM + 10% dialyzed FBS, 0.19 µM
[7] = HPLM + 10% dialyzed FBS, 0.569 µM
[8] = HPLM + 10% dialyzed FBS, 1.71 µM
[9] = HPLM + 10% dialyzed FBS, 5.12 µM
[10] = HPLM + 10% dialyzed FBS, 15.4 µM
[11] = HPLM + 10% dialyzed FBS, 46.1 µM
[12] = RPMI 5 mM glucose + 10% FBS, 0.000781 µM
[13] = RPMI 5 mM glucose + 10% FBS, 0.00234 µM
[14] = RPMI 5 mM glucose + 10% FBS, 0.00702 µM
[15] = RPMI 5 mM glucose + 10% FBS, 0.0211 µM
[16] = RPMI 5 mM glucose + 10% FBS, 0.0632 µM
[17] = RPMI 5 mM glucose + 10% FBS, 0.19 µM
[18] = RPMI 5 mM glucose + 10% FBS, 0.569 µM
[19] = RPMI 5 mM glucose + 10% FBS, 1.71 µM
[20] = RPMI 5 mM glucose + 10% FBS, 5.12 µM
[21] = RPMI 5 mM glucose + 10% FBS, 15.4 µM
[22] = RPMI 5 mM glucose + 10% FBS, 46.1 µM
[23] = RPMI 5 mM glucose + 10% dialyzed FBS, 0.000781 µM
[24] = RPMI 5 mM glucose + 10% dialyzed FBS, 0.00234 µM
[25] = RPMI 5 mM glucose + 10% dialyzed FBS, 0.00702 µM
[26] = RPMI 5 mM glucose + 10% dialyzed FBS, 0.0211 µM
[27] = RPMI 5 mM glucose + 10% dialyzed FBS, 0.0632 µM
[28] = RPMI 5 mM glucose + 10% dialyzed FBS, 0.19 µM
[29] = RPMI 5 mM glucose + 10% dialyzed FBS, 0.569 µM
[30] = RPMI 5 mM glucose + 10% dialyzed FBS, 1.71 µM
[31] = RPMI 5 mM glucose + 10% dialyzed FBS, 5.12 µM
[32] = RPMI 5 mM glucose + 10% dialyzed FBS, 15.4 µM
[33] = RPMI 5 mM glucose + 10% dialyzed FBS, 46.1 µM

| Structure (SMILES) | cell viability [1] [%] | cell viability [2] [%] | cell viability [3] [%] | cell viability [4] [%] | cell viability [5] [%] | cell viability [6] [%] | cell viability [7] [%] | cell viability [8] [%] | cell viability [9] [%] | cell viability [10] [%] | cell viability [11] [%] | cell viability [12] [%] | cell viability [13] [%] | cell viability [14] [%] | cell viability [15] [%] | cell viability [16] [%] | cell viability [17] [%] | cell viability [18] [%] | cell viability [19] [%] | cell viability [20] [%] | cell viability [21] [%] | cell viability [22] [%] | cell viability [23] [%] | cell viability [24] [%] | cell viability [25] [%] | cell viability [26] [%] | cell viability [27] [%] | cell viability [28] [%] | cell viability [29] [%] | cell viability [30] [%] | cell viability [31] [%] | cell viability [32] [%] | cell viability [33] [%] |
| --- | --- | --- | --- | --- | --- | --- | --- | --- | --- | --- | --- | --- | --- | --- | --- | --- | --- | --- | --- | --- | --- | --- | --- | --- | --- | --- | --- | --- | --- | --- | --- | --- | --- |
| CC[C@@]1(O)C(=O)OC\C2=C1\C=C\3N(CC4=C3N=C5C=CC=CC5=C4)C2=O | 122 | 115 | 145 | 120 | 80.4 | 30.3 | 30.7 | 28.6 | 21.1 | 14.9 | 25.7 | 117 | 106 | 120 | 106 | 77.5 | 22.3 | 20.8 | 20.4 | 11.9 | 16.7 | 17.9 | 126 | 110 | 121 | 103 | 76.5 | 28.9 | 28.6 | 27.5 | 21.9 | 22.4 | 14 |
| COc1ncnc(N[S+](=O)([O-])c2ccc(N)cc2)c1OC | 111 | 111 | 104 | 122 | 102 | 123 | 97.6 | 61.4 | 31.5 | 8.89 | 7.76 | 97.7 | 107 | 107 | 98 | 101 | 112 | 103 | 106 | 51.3 | 24 | 13.5 | 103 | 115 | 97.2 | 110 | 117 | 119 | 123 | 108 | 70.9 | 36.7 | 19 |
| CN[C@@H](C)C(=O)N[C@H]1CN(C(=O)CC(C)C)CC[C@H]2CC[C@@H](C(=O)NC(c3ccccc3)c3ccccc3)N2C1=O | 96.2 | 118 | 112 | 119 | 82.9 | 85.2 | 74 | 54.5 | 17.4 | 13.9 | 11.3 | 102 | 105 | 104 | 100 | 96.9 | 91.6 | 95.8 | 37 | 10.6 | 10.2 | 6.19 | 85.3 | 98.6 | 92.6 | 94.1 | 121 | 91.8 | 97.1 | 90.3 | 17.7 | 13.9 | 9.5 |
| CC(C)c1ccc(Cn2ccc3c4c(N)nc(NC5CC5)nc4ccc32)cc1 | 116 | 114 | 116 | 101 | 126 | 123 | 70.2 | 53.1 | 38.8 | 39.3 | 4.39 | 121 | 116 | 125 | 120 | 120 | 130 | 123 | 113 | 100 | 30.9 | 4.9 | 110 | 109 | 104 | 107 | 133 | 124 | 128 | 84.7 | 50.3 | 49.8 | 3.66 |
| CNCc1ccc(-c2[nH]c3cc(F)cc4c3c2CCNC4=O)cc1 |  |  |  |  |  |  |  |  |  |  |  | 111 | 117 | 126 | 147 | 133 | 127 | 128 | 130 | 120 | 132 | 125 | 103 | 120 | 131 | 155 | 139 | 139 | 125 | 136 | 151 | 145 | 141 |
| CC1(N2CCC(n3c([C@@H]4CCCNC4)nc4ccccc43)CC2)CCCCCCC1 | 77.1 | 100 | 112 | 111 | 127 | 116 | 116 | 101 | 94 | 45.4 | 7.21 | 93.6 | 103 | 102 | 112 | 108 | 124 | 112 | 120 | 109 | 97.7 | 53.5 | 91 | 108 | 122 | 115 | 121 | 104 | 130 | 134 | 98.4 | 69.4 | 17.8 |
| C[S+](=O)([O-])c1ccc(-c2cnc(N)c(C(=O)Nc3ccccc3)n2)cc1 | 113 | 119 | 128 | 126 | 118 | 145 | 123 | 103 | 115 | 52.1 | 56.1 | 110 | 110 | 112 | 110 | 111 | 133 | 113 | 116 | 110 | 87 | 98.4 | 95.6 | 93.1 | 99.7 | 104 | 106 | 113 | 117 | 112 | 110 | 75 | 69.3 |
| COC1=CC=C(C=C1O)C/2=C/C(=O)C3=C(O2)C=C(O)C=C3O | 93.3 | 108 | 108 | 108 | 114 | 100 | 95.3 | 98.4 | 94.4 | 93.9 | 110 | 96.4 | 86 | 82.8 | 87.4 | 94.5 | 93.7 | 96.8 | 88.2 | 95 | 105 | 102 | 91.3 | 90.5 | 85.5 | 100 | 105 | 89.8 | 83.6 | 89.5 | 82.5 | 92.5 | 98.2 |
| O=C(O)CCn1c2c(c3ccccc31)C[C@H](N[S+](=O)([O-])c1ccc(F)cc1)CC2 | 115 | 112 | 120 | 124 | 113 | 109 | 104 | 105 | 116 | 88.3 | 72.2 | 102 | 105 | 108 | 98.2 | 114 | 99 | 99.2 | 98.7 | 94.2 | 102 | 90.5 | 99.2 | 107 | 120 | 102 | 95.8 | 102 | 109 | 98.1 | 103 | 91.8 | 85.9 |
| Cc1[nH]c(/C=C2\C(=O)Nc3ccccc32)c(C)c1CCC(=O)O | 92.3 | 101 | 108 | 114 | 113 | 106 | 99.9 | 118 | 105 | 51.3 | 23.8 | 95.9 | 112 | 108 | 114 | 115 | 123 | 111 | 104 | 110 | 58.7 | 18.4 | 97 | 118 | 96.1 | 98.1 | 113 | 106 | 102 | 109 | 103 | 101 | 22.7 |
| CN[C@@H]1Cc2cccc3[nH]c(=O)n(c23)C1 |  |  |  |  |  |  |  |  |  |  |  | 112 | 113 | 118 | 110 | 107 | 105 | 108 | 106 | 105 | 102 | 103 |  |  |  |  |  |  |  |  |  |  |  |
| Cc1csc(NC(=O)c2sc3nc4c(c(C(F)(F)F)c3c2N)CCC4)n1 | 91.6 | 102 | 97.9 | 101 | 96.7 | 96.4 | 99.4 | 91.4 | 94 | 79.6 | 77.6 | 81.7 | 94.4 | 92.3 | 87.4 | 90.6 | 86 | 91.7 | 88.1 | 87.2 | 78.3 | 85.5 | 83.5 | 91.2 | 93 | 93.1 | 91.3 | 89.4 | 91 | 97.9 | 96.3 | 95.3 | 89.7 |
| CC1(C)CNc2cc(NC(=O)c3cccnc3NCc3ccncc3)ccc21 | 131 | 118 | 112 | 137 | 108 | 105 | 112 | 113 | 109 | 94.6 | 91.8 | 115 | 119 | 134 | 124 | 120 | 118 | 124 | 120 | 103 | 120 | 118 | 116 | 110 | 120 | 112 | 107 | 96.3 | 114 | 115 | 113 | 105 | 115 |
| OC(=O)C(CC/1=C/C(=O)NC2=CC=CC=C12)NC(=O)C3=CC=C(Cl)C=C3 (stereo unspecified) | 95.6 | 117 | 136 | 121 | 130 | 121 | 131 | 122 | 131 | 136 | 110 | 121 | 122 | 121 | 134 | 132 | 127 | 140 | 155 | 137 | 135 | 134 | 114 | 125 | 147 | 127 | 139 | 137 | 136 | 135 | 134 | 132 | 143 |
| COc1ccc(C2Sc3ccccc3N(CCN(C)C)C(=O)C2OC(C)=O)cc1 (stereo unspecified) | 118 | 114 | 124 | 114 | 112 | 114 | 113 | 120 | 119 | 110 | 89.2 | 97.3 | 108 | 105 | 96.9 | 100 | 108 | 99 | 102 | 100 | 95.4 | 94.8 | 115 | 104 | 112 | 107 | 113 | 111 | 115 | 109 | 100 | 98.7 | 85.2 |
| C[C@@H](NC(=O)c1ncnc(N)c1Cl)c1ncc(C(=O)Nc2cc(C(F)(F)F)c(Cl)cn2)s1 |  |  |  |  |  |  |  |  |  |  |  | 99.4 | 124 | 124 | 121 | 125 | 122 | 138 | 127 | 114 | 103 | 88.3 |  |  |  |  |  |  |  |  |  |  |  |
| C[C@]12CC[C@H]3[C@@H](CCC/4=C/C(=O)CC[C@]34C)[C@@H]1CC[C@@H]2O | 93.4 | 113 | 126 | 111 | 136 | 126 | 123 | 111 | 130 | 127 | 137 | 109 | 118 | 134 | 143 | 146 | 145 | 129 | 134 | 147 | 153 | 147 | 107 | 121 | 135 | 137 | 142 | 141 | 147 | 129 | 145 | 138 | 143 |
